Experimental data: patent US10864211B2, “Hydroxy isoxazole compounds useful as GPR120 agonists” (Merck Sharp & Dohme Corp., priority 2016, dated 2020)
pEC50: −log10 of the molar value. Counter-ions that a name gives are not always drawn.

Target: T1, human GPR120 (Homo sapiens, UniProt Q5NUL3)
T1 construct: expressed in transfected cells; host or cells: CHO-K1
T1 sequence (Q5NUL3 1-361): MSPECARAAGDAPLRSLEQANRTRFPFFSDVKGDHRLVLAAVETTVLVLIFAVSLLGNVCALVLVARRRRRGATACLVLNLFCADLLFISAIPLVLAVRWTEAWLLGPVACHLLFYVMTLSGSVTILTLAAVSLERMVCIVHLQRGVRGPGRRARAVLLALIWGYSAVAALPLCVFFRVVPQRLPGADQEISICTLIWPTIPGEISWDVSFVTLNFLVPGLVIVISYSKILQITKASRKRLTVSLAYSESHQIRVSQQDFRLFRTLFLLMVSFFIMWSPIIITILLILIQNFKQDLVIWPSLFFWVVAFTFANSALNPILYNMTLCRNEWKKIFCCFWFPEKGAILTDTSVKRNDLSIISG
Assay: Human GPR120 IP1 assay (inositol phosphate turnover)
Format: cell-based
Details: IP1 accumulation in CHO-K1 cells stably expressing the short form of human GPR120
Excerpt: The binding of small molecule agonists to the G-protein-coupled receptor GPR120 activates phospholipase C, and leads to the generation of inositol 1,4,5-trisphosphate (InsP3 or IP3). IP3 is subsequently de-phosphorylated to IP1, which accumulates in cells and is stable in the presence of lithium chloride.
In the present method, agonist-induced activation of the human and rat GPR120 receptor was monitored by measuring the accumulation of IP1 in CHO-K1 cells that were stably expressing the short form of human GPR120 (Accession #NM_001195755) or HEK293 cells stably expressing rat GPR120 (Accession #NM_001047088). Following agonist addition, GPR120 activation and subsequent accumulation of IP1 was measured using a homogeneous Time Resolved Fluorescence-based ELISA commercially available from CisBio (IP-one ELISA Kit). The IP-One ELISA was a competitive immunoassay which uses IP1 labeled with […] and a terbium cryptate-labeled anti-IP1 monoclonal antibody. […] The signal loss was then back calculated to IP1 concentration using an IP1 standard curve. Determination of IP1 concentration was a direct measure of GPR120 activation and was used to determine compound potency (EC50).
Human GPR120 stable cell-lines were generated in CHO cells. The expression plasmids were transfected using lipofectamine (Life Technologies) following manufacturer's instructions. Stable cell-lines were generated following drug selection and single cell cloning. Rat GPR120 stable cell-lines were generated in HEK cells using the Jump-In™ cell engineering platform (Life Technologies) following manufacturer's instructions. Stable cell-lines were generated following drug selection and single cell cloning.
The assay was performed in 384-well format. CHO cells stably expressing human GPR120 were plated at 20,000 cells per well in growth medium (DMEM/F12, 10% fetal calf serum). HEK293 cells stably expressing rat GPR120 were plated at […] per well in growth medium (DMEM, 10% fetal calf serum). Cell plates were then incubated 16 hours at 37 degrees in a 5% CO2 incubator. Measurement of Inositol Phosphate Turnover (IP1) was performed using the CisBio IP-One kit (Part number 62IPAPEB). After the 16 hour incubation, the growth media was removed by centrifugation using the BlueWasher (AusWasher GUI Ver. v1.0.1.8) Protocol #21-“Light Dry” and 10 μl of stimulation buffer (prepared as described in the kit) was added to each well. In a separate plate, compounds were diluted in DMSO (200-fold over the final concentration in the assay well) and 50 nl was acoustically transferred to the appropriate well in the assay cell plate. The plates were then incubated for 60 minutes at 37 degrees in a 5% CO2 incubator. 10 μl of detection buffer (also prepared as described in the IP-One kit) was added to each well and the plates were incubated at room temperature for 60 minutes in the dark. The plates were then read in a Perkin ElmerEnVision or equivalent reader able to measure FRET. Fluorescent ratio of emission at 665 and 620 nm was then converted to the IP1 concentration by back calculating from an IP1 standard curve prepared at the time of the assay. The data was normalized to % activity using a reference compound, and the EC50 values were determined using a standard 4-parameter fit.

Compound | pEC50
Oc1cc(-c2cnc(OC3CC(OCC4CCCCC4)C3)cn2)on1 (mixture of isomers) [Example 80, 5-(5-{[cis-3-(cyclohexylmethoxy)cyclobutyl]oxy}pyrazin-2-yl)isoxazol-3-ol (mixture of isomers predominantly cis)] | 7.64
Oc1cc(-c2ccc(O[C@H]3C[C@@](F)(c4ccc(C(F)(F)F)cn4)C3)nc2)on1 [Example 97, 2-(trans-1-fluoro-3-{[5-(3-hydroxyisoxazol-5-yl)pyridin-2-yl]oxy}cyclobutyl)-5-(trifluoromethyl)pyridinium trifluoroacetate] | 7.66
N#Cc1cccc(COC2CC(Oc3ccc(-c4cc(O)no4)cn3)C2)c1F (mixture of isomers) [Example 77, ammonium 5-[6-({cis-3-[(3-cyano-2-fluorobenzyl)oxy]cyclobutyl}oxy)pyridin-3-yl]isoxazol-3-olate (mixture of isomers predominantly cis)] | 6.41
Oc1cc(-c2ccc(OC3CCC(c4cccc(OC(F)(F)F)c4)C3)nc2)on1 (single isomer, unassigned) [Example 116, 5-(3-hydroxyisoxazol-5-yl)-2-({3-[3-(trifluoromethoxy)-phenyl]cyclopentyl}oxy)pyridinium trifluoroacetate] | 7.74
Oc1cc(-c2ccc(O[C@H]3C[C@@H](C4CCCCC4)C3)nc2)on1 [Example 37, 2-[(cis-3-cyclohexylcyclobutyl)oxy]-5-(3-hydroxyisoxazol-5-yl)pyridinium chloride] | 6.79
Oc1cc(-c2ccc(O[C@H]3C[C@@H](COc4ccccc4)C3)nc2)on1 [Example 82, 5-(3-hydroxyisoxazol-5-yl)-2-{[cis-3-(phenoxymethyl)cyclobutyl]oxy}pyridinium chloride] | 8.15
CCOc1cc([C@]2(F)C[C@H](Oc3ccc(-c4cc(O)no4)cn3)C2)ccn1 [Example 98, Sodium 5-(6-{[trans-3-(2-ethoxypyridin-4-yl)-3-fluorocyclobutyl]oxy}pyridin-3-yl)isoxazol-3-olate] | 7.82
Oc1cc(-c2ccc(O[C@H]3C[C@@](F)(c4ccc(C(F)F)c(F)c4)C3)nc2)on1 [Example 103, 5-[6-({trans-3-[4-(difluoromethyl)-3-fluorophenyl]-3-fluorocyclobutyl}oxy)pyridin-3-yl)isoxazol-3-ol] | 7.40
Oc1cc(-c2ccc(OC3CCC(c4cccc(OC(F)(F)F)c4)C3)nc2)on1 (single isomer, unassigned) [Example 118] | 7.47
Oc1cc(-c2ccc(OC3CC(OCc4ccc(F)cc4F)C3)nc2)on1 (mixture of isomers) [Example 72, 5-[6-({cis-3-[(2,4-difluorobenzyl)oxy]cyclobutyl}oxy)pyridin-3-yl]isoxazol-3-ol (mixture of isomers predominantly cis)] | 7.54
CCOc1cc([C@]2(F)C[C@@H](Oc3ccc(-c4cc(O)no4)cn3)C2)ccn1 [Example 86, sodium 5-(6-{[cis-3-(2-ethoxypyridin-4-yl)-3-fluoro-cyclobutyl]oxy}pyridin-3-yl)isoxazol-3-olate] | 7.59

The remaining lines, values ahead:

pEC50 | Compound
7.64 | Oc1cc(-c2cnc(O[C@H]3C[C@@H](c4c(F)cc(OC(F)F)cc4F)C3)cn2)on1 [Example 50, ammonium 5-[5-({cis-3-[4-(difluoromethoxy)-2,6-difluorophenyl]cyclobutyl}oxy)pyrazin-2-yl]isoxazol-3-olate]
6.19 | Oc1cc(-c2cnc(O[C@H]3C[C@@H](c4ccc(F)cc4)C3)nc2)on1 [Example 112, 5-(2-{[cis-3-(4-fluorophenyl)cyclobutyl]oxy}pyrimidin-5-yl)isoxazol-3-ol]
7.80 | Cc1cc(F)c([C@H]2C[C@@H](Oc3cnc(-c4cc(O)no4)cn3)C2)c(F)c1 [Example 51, ammonium 5-(5-{[cis-3-(2,6-difluoro-4-methyl-phenyl)-cyclobutyl]oxy}pyrazin-2-yl)isoxazol-3-olate]
6.52 | Oc1cc(-c2ccc(O[C@H]3C[C@H](c4ncc(C(F)(F)F)cc4F)C3)nc2)on1 [Example 8, sodium 5-[6-({trans-3-[3-fluoro-5-(trifluoromethyl)pyridin-2-yl]-cyclobutyl}oxy)pyridin-3-yl]isoxazol-3-olate]
7.29 | Oc1cc(-c2cnc(O[C@H]3C[C@@](F)(c4cc(OC(F)(F)F)ccc4F)C3)cn2)on1 (single isomer, unassigned) [Example 89, 5-[5-({trans-3-fluoro-3-[2-fluoro-5-(trifluoromethoxy)phenyl]-cyclobutyl}oxy)pyrazin-2-yl]isoxazol-3-ol]
7.80 | Oc1cc(-c2cnc(O[C@H]3C[C@@H](c4ccc5c(c4)OC(F)(F)O5)C3)cn2)on1 [Example 40, 5-(5-{[cis-3-(2,2-difluoro-1,3-benzodioxol-5-yl)cyclobutyl]oxy}pyrazin-2-yl)isoxazol-3-ol]
7.04 | Oc1cc(-c2cnc(O[C@H]3C[C@](F)(c4cc(OC(F)(F)F)ccc4F)C3)cn2)on1 [Example 106, 5-[5-({cis-3-fluoro-3-[2-fluoro-5-(trifluoromethoxy)phenyl]cyclobutyl}oxy)pyrazin-2-yl]isoxazol-3-ol]
7.85 | Oc1cc(-c2cnc(O[C@H]3C[C@@](F)(c4ccc(Cl)cc4)C3)cn2)on1 [Example 108, 5-(5-{[trans-3-(4-chlorophenyl)-3-fluorocyclobutyl]oxy}pyrazin-2-yl)isoxazol-3-ol]
8.10 | Oc1cc(-c2cnc(O[C@H]3C[C@@H](c4ccc(C(F)F)cc4)C3)cn2)on1 [Example 59, 5-[5-({cis-3-[4-(difluoromethyl)phenyl]cyclobutyl}oxy)pyrazin-2-yl]isoxazol-3-ol]
7.22 | Cc1cc([C@H]2C[C@@H](Oc3cnc(-c4cc(O)no4)cn3)C2)ccc1OC(F)(F)F [Example 44, 5-[5-({cis-3-[3-methyl-4-(trifluoromethoxy)phenyl]cyclobutyl}oxy)pyrazin-2-yl]isoxazol-3-ol]
7.60 | Oc1cc(-c2cnc(O[C@H]3C[C@@H](c4ccnc(OC5CC5)c4)C3)cn2)on1 [Example 34, 5-[5-({cis-3-[2-(cyclopropyloxy)pyridin-4-yl]cyclobutyl}oxy)pyrazin-2-yl]isoxazol-3-ol]
7.39 | Oc1cc(-c2cnc(OC3CC(c4ccc5c(c4)OC(F)(F)O5)C3)nc2)on1 (stereo not drawn) [Example 113, sodium 5-(2-{[3-(2,2-difluoro-1,3-benzodioxol-5-yl)cyclobutyl]oxy}pyrimidin-5-yl)isoxazol-3-olate]
7.47 | Oc1cc(-c2cnc(O[C@H]3C[C@@H](c4ccc(F)cc4)C3)cn2)on1 [Example 10, sodium 5-(5-{[cis-3-(4-fluorophenyl)cyclobutyl]oxy}pyrazin-2-yl)isoxazol-3-olate]
8.06 | Oc1cc(-c2cnc(O[C@H]3C[C@@H](c4ccc(C(F)F)c(F)c4)C3)cn2)on1 [Example 1, 5-[5-({cis-3-[4-(difluoromethyl)-3-fluorophenyl]cyclobutyl}oxy)pyrazin-2-yl]isoxazol-3-ol]
7.85 | Oc1cc(-c2cnc(O[C@H]3C[C@@H](c4cc(F)c(OC(F)F)c(F)c4)C3)cn2)on1 [Example 53, ammonium 5-[5-({cis-3-[4-(difluoromethoxy)-3,5-di-fluorophenyl]cyclobutyl}oxy)pyrazin-2-yl]isoxazol-3-olate]
7.42 | Cc1cc(O[C@H]2C[C@@H](Oc3cnc(-c4cc(O)no4)cn3)C2)ccc1F [Example 71, 5-(5-{[cis-3-(4-fluoro-3-methylphenoxy)cyclobutyl]oxy}pyrazin-2-yl)isoxazol-3-ol]
